# Key:
# HiBiT-tagged HTT protein = assay: HiBiT protein abundance assay, HTT (K562 HiBiT knock-in cells); assay type: cell-based, human; conditions: 24 hours
# Method in brief: (§1)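 K562 cells with endogenous HiBiT knock-in tag, 10-point 3-fold dilutions (top 10 μM final, ≤0.25% DMSO), 24 h at 37 °C. Lytic Nano-Glo HiBiT luminescence, normalized to DMSO and unmodified K562 baselines; IC50 is concentration giving 50% protein abundance from four-parameter fit.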
# HTT mRNA = assay: Splicing RT-qPCR assay, HTT canonical (CJ) and alternative (AJ) junction mRNA; assay type: cell-based; conditions: Homo sapiens, A673 or K562 cells, 24 hours; for IC50: decrease in canonical junction mRNA; for AC50: increase in alternative junction mRNA
# Method in brief: (§2)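 A673 or K562 cells were treated 24 h at 37 °C with compounds in an 11-point 3-fold dilution series (top final 10 uM, DMSO ≤0.25%). Lysates were analysed by one-step RT-qPCR for canonical (CJ) and alternative-exon (AJ) junction isoforms, normalized to GAPDH, GUSB or PPIA.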
# MYB mRNA = assay: Splicing RT-qPCR assay, MYB canonical (CJ) and alternative (AJ) junction mRNA; assay type: cell-based; conditions: Homo sapiens, A673 or K562 cells, 24 hours; for IC50: decrease in canonical junction mRNA; for AC50: increase in alternative junction mRNA
# Method in brief: as §2
# HiBiT-tagged MYB protein = assay: HiBiT protein abundance assay, MYB (K562 HiBiT knock-in cells); assay type: cell-based, human; conditions: 24 hours
# Method in brief: as §1
SMILES,IC50 (HiBiT-tagged HTT protein),IC50 (HTT mRNA),IC50 (MYB mRNA),IC50 (HiBiT-tagged MYB protein),AC50 (HTT mRNA),AC50 (MYB mRNA)
Cc1cn2cc(NC(=O)c3ccc(N4CCN[C@H](CO)C4)c4nccnc34)cc(F)c2n1 [Compound 362],1000 to 10000 nM,1000 to 10000 nM,100 to 1000 nM,100 to 1000 nM,1000 to 10000 nM,100 to 1000 nM
Cc1cn2cc(NC(=O)c3ccc(N4CCN(C)C5(CC5)C4)c4nccnc34)cc(F)c2n1 [Compound 364],100 to 1000 nM,100 to 1000 nM,100 to 1000 nM,100 to 1000 nM,1000 to 10000 nM,100 to 1000 nM
Cc1cn2cc(NC(=O)c3ccc(N4CCN[C@H](CF)C4)c4nccnc34)cc(F)c2n1 [Compound 366],1000 to 10000 nM,1000 to 10000 nM,100 to 1000 nM,100 to 1000 nM,1000 to 10000 nM,100 to 1000 nM
Cc1cn2cc(NC(=O)c3ccc(N4CCN[C@@H](CF)C4)c4nccnc34)cc(F)c2n1 [Compound 367],1000 to 10000 nM,1000 to 10000 nM,1000 to 10000 nM,1000 to 10000 nM,1000 to 10000 nM,1000 to 10000 nM

# Second part, led by results:
IC50 (HiBiT-tagged HTT protein),IC50 (HTT mRNA),IC50 (MYB mRNA),IC50 (HiBiT-tagged MYB protein),SMILES,AC50 (HTT mRNA),AC50 (MYB mRNA)
> 10000 nM,> 10000 nM,> 10000 nM,> 10000 nM,C[C@@H]1CN(c2ccc(C(=O)Nc3cc(F)c4nc(O)cn4c3)c3nccnc23)C[C@H](C)N1 [Compound 360],> 10000 nM,> 10000 nM
1000 to 10000 nM,1000 to 10000 nM,100 to 1000 nM,< 100 nM,Cc1cn2cc(NC(=O)c3ccc(N4CCNC5(CCC5)C4)c4nccnc34)cc(F)c2n1 [Compound 363],1000 to 10000 nM,100 to 1000 nM
100 to 1000 nM,100 to 1000 nM,100 to 1000 nM,100 to 1000 nM,CCN1CCN(c2ccc(C(=O)Nc3cc(F)c4nc(C)cn4c3)c3nccnc23)CC12CC2 [Compound 365],1000 to 10000 nM,100 to 1000 nM
1000 to 10000 nM,1000 to 10000 nM,< 100 nM,< 100 nM,Cc1cn2cc(NC(=O)c3ccc(N4CCNC(C)(CO)C4)c4nccnc34)cc(F)c2n1 (stereo not drawn) [Compound 368],1000 to 10000 nM,< 100 nM
1000 to 10000 nM,1000 to 10000 nM,100 to 1000 nM,100 to 1000 nM,Cc1cn2cc(NC(=O)c3ccc(N4CCN(CCO)C5(CC5)C4)c4nccnc34)cc(F)c2n1 [Compound 369],1000 to 10000 nM,100 to 1000 nM

# Source: patent US20240409536A1, “COMPOUNDS AND METHODS FOR MODULATING SPLICING” (REMIX THERAPEUTICS INC., priority 2021, published 2024)
